SMILES | CH4 permeability | CO2 permeability | H2 permeability | N2 permeability | O2 permeability
*C(=C(*)c1ccc([Si](C(C)C)(C(C)C)C(C)C)cc1)c1ccccc1 (repeat unit) | 315 Barrer | 1300 Barrer | 635 Barrer | 130 Barrer | 290 Barrer
*C(=C(*)c1ccc([Si](C)(C)C)cc1)c1ccc(-c2ccc(C(C)(C)C)cc2)cc1 (repeat unit) | 730 Barrer | 3300 Barrer | 1200 Barrer | 250 Barrer | 620 Barrer
*C(=C(*)c1ccc([Si](C)(C)C)cc1)c1ccc(O[Si](C)(C)C(C)(C)C)cc1 (repeat unit) | 1100 Barrer | 3800 Barrer | 1500 Barrer | 390 Barrer | 830 Barrer
*C(=C(*)c1ccc([Si](C)(C)C)cc1)c1ccccc1 (repeat unit) | 1550 Barrer | 4700 Barrer | 2600 Barrer | 550 Barrer | 1200 Barrer
*Oc1ccc(-c2c(-c3ccccc3)c(-c3ccccc3)c(-c3ccc4c(c3)Oc3c(C#N)c(*)c(*)c(C#N)c3O4)c(-c3ccccc3)c2-c2ccccc2)cc1O* (repeat unit) | 192 Barrer | 2390 Barrer | 1000 Barrer | 107 Barrer | 340 Barrer
*Oc1ccc(-c2ccc(C3CCC(Oc4ccc(C5(c6ccc(*)cc6)c6ccccc6-c6ccccc65)cc4)C(C(F)(F)F)C3)s2)cc1C(F)(F)F (repeat unit) | 1.8 Barrer | 35.7 Barrer | 55 Barrer | 1.99 Barrer | 8.4 Barrer
*Oc1ccc(C(C)(C)c2ccc(C(C)(C)c3ccc(Oc4ccc(S(=O)(=O)c5ccc(*)cc5)cc4)cc3)cc2)cc1 (repeat unit) | 0.34 Barrer | 6.8 Barrer | 36 Barrer | 0.321 Barrer | 1.8 Barrer
*Oc1ccc(C(C)(C)c2ccc(OC(*)=O)cc2)cc1 (repeat unit) | 0.331 Barrer | 7.54 Barrer | 13 Barrer | 0.3 Barrer | 1.48 Barrer
*Oc1ccc(C(C)(C)c2ccc(OC(=O)c3cc(C(*)=O)cc(C(C)(C)C)c3)cc2)cc1 (repeat unit) | 1.43 Barrer | 24.2 Barrer | 41.9 Barrer | 1.18 Barrer | 5.95 Barrer
*Oc1ccc(C(C)(C)c2ccc(OC(=O)c3cccc(C(*)=O)c3)c(C(C)C)c2)cc1C(C)C (repeat unit) | 0.305 Barrer | 5.16 Barrer | 18.9 Barrer | 0.273 Barrer | 1.64 Barrer
*Oc1ccc(C(C)(C)c2ccc(Oc3c(F)c(F)c(COC(C4CCCC(C(OCc5c(F)c(F)c(*)c(F)c5F)(C(F)(F)F)C(F)(F)F)C4)(C(F)(F)F)C(F)(F)F)c(F)c3F)cc2)cc1 (repeat unit) | 0.32 Barrer | 6.4 Barrer | 17 Barrer | 0.48 Barrer | 2.1 Barrer
*Oc1ccc(C(C)(C)c2ccc(Oc3ccc4c(c3)C(=O)N(c3ccc(N5C(=O)c6ccc(*)cc6C5=O)cc3)C4=O)cc2)cc1 (repeat unit) | 0.04 Barrer | 1.8 Barrer | – | – | 0.4 Barrer
*Oc1ccc(C(C)(C)c2ccc(Oc3ccc4c(c3)C(=O)N(c3cccc(N5C(=O)c6ccc(*)cc6C5=O)c3)C4=O)cc2)cc1 (repeat unit) | 0.0356 Barrer | 1.3 Barrer | – | 0.0526 Barrer | 0.4 Barrer
*Oc1ccc(C(C)(c2ccccc2)c2ccc(OC(=O)c3cccc(C(*)=O)c3)cc2)cc1 (repeat unit) | 0.59 Barrer | 13.1 Barrer | – | 0.54 Barrer | 2.58 Barrer
*Oc1ccc(C(C)(c2ccccc2)c2ccc(Oc3ccc(S(=O)(=O)c4ccc(*)cc4)cc3)cc2)cc1 (repeat unit) | 0.32 Barrer | 8.12 Barrer | – | 0.278 Barrer | 1.56 Barrer
*Oc1ccc(C(c2ccc(Oc3ccc(S(=O)(=O)c4ccc(*)cc4)cc3)cc2)c2ccccc2C(=O)O)cc1 (repeat unit) | 0.0395 Barrer | 2.25 Barrer | 7.22 Barrer | 0.0437 Barrer | 0.441 Barrer
*Oc1ccc(C2(c3ccc(OC(=O)c4cc(C(*)=O)cc(C(C)(C)C)c4)cc3)OC(=O)c3ccccc32)cc1 (repeat unit) | 1.16 Barrer | 23.8 Barrer | 41.3 Barrer | 1.06 Barrer | 5.6 Barrer
*Oc1ccc(C2(c3ccc(OC(=O)c4cccc(C(*)=O)c4)cc3)OC(=O)c3ccccc32)cc1 (repeat unit) | 0.251 Barrer | 7.87 Barrer | 17.2 Barrer | 0.303 Barrer | 1.78 Barrer
*Oc1ccc(C2(c3ccc(OC(=O)c4cccc(C(*)=O)c4)cc3)c3ccccc3-c3ccccc32)cc1 (repeat unit) | 0.71 Barrer | 20.1 Barrer | – | 0.64 Barrer | 3.92 Barrer
*Oc1ccc(C2(c3ccc(Oc4ccc(S(=O)(=O)c5ccc(*)cc5)cc4)cc3)C3CC4CC(C3)CC2C4)cc1 (repeat unit) | 0.327 Barrer | 7.2 Barrer | 17.3 Barrer | 0.332 Barrer | 1.86 Barrer
*Oc1ccc(C2(c3ccc(Oc4ccc(S(=O)(=O)c5ccc(*)cc5)cc4)cc3)OC(=O)c3ccccc32)cc1 (repeat unit) | 0.143 Barrer | 5.74 Barrer | 10.1 Barrer | 0.17 Barrer | 1.2 Barrer
*Oc1ccc(Cc2ccc(Oc3ccc(S(=O)(=O)c4ccc(*)cc4)cc3)cc2)cc1 (repeat unit) | 0.19 Barrer | 4.5 Barrer | 10.4 Barrer | 0.2 Barrer | 1.1 Barrer

Next, values leading:

CH4 permeability | CO2 permeability | H2 permeability | N2 permeability | O2 permeability | SMILES
0.14 Barrer | 3.3 Barrer | 8.9 Barrer | 0.13 Barrer | 0.75 Barrer | *Oc1ccc(C(=O)c2ccc(-c3ccc(C(=O)c4ccc(Oc5ccc(C(C)(C)c6ccc(*)cc6)cc5)cc4)cc3)cc2)cc1 (repeat unit)
0.058 Barrer | 1.95 Barrer | – | 0.0792 Barrer | 0.61 Barrer | *Oc1ccc(C(=O)c2cccc(-c3cccc(C(=O)c4ccc(Oc5ccc(C(c6ccc(*)cc6)(C(F)(F)F)C(F)(F)F)cc5)cc4)c3)c2)cc1 (repeat unit)
0.264 Barrer | 6.96 Barrer | – | 0.291 Barrer | 1.86 Barrer | *Oc1ccc(C(=O)c2ccccc2-c2ccccc2C(=O)c2ccc(Oc3c(C)cc(-c4cc(C)c(*)c(C)c4)cc3C)cc2)cc1 (repeat unit)
0.678 Barrer | 11.6 Barrer | – | 0.625 Barrer | 2.5 Barrer | *Oc1ccc(C(C)(C)c2ccc(OC(=O)c3ccc(C(*)=O)cc3)cc2)cc1 (repeat unit)
0.471 Barrer | 9.9 Barrer | – | 0.364 Barrer | 2.04 Barrer | *Oc1ccc(C(C)(C)c2ccc(OC(=O)c3ccc(C(=O)Oc4cc(-c5cc(*)cc6ccccc56)c5ccccc5c4)cc3)cc2)cc1 (repeat unit)
0.18 Barrer | 3.5 Barrer | 11 Barrer | 0.16 Barrer | 1 Barrer | *Oc1ccc(C(C)(C)c2ccc(Oc3ccc(C(=O)c4ccc(*)cc4)cc3)cc2)cc1 (repeat unit)
0.084 Barrer | 2.19 Barrer | 9.07 Barrer | 0.087 Barrer | 0.604 Barrer | *Oc1ccc(C(C)(C)c2ccc(Oc3ccc(C(=O)c4ccc(C(=O)c5ccc(*)cc5)cc4)cc3)cc2)cc1 (repeat unit)
0.22 Barrer | 4.4 Barrer | 12.4 Barrer | 0.21 Barrer | 1.1 Barrer | *Oc1ccc(C(C)(C)c2ccc(Oc3ccc(C(=O)c4ccc(C(C)(C)c5ccc(C(=O)c6ccc(*)cc6)cc5)cc4)cc3)cc2)cc1 (repeat unit)
0.07 Barrer | 2.1 Barrer | 11 Barrer | 0.091 Barrer | 0.64 Barrer | *Oc1ccc(C(C)(C)c2ccc(Oc3ccc(S(=O)(=O)c4ccc(*)cc4)cc3)c(C)c2)cc1C (repeat unit)
1.05 Barrer | 24 Barrer | 27 Barrer | 1.7 Barrer | 6.9 Barrer | *Oc1ccc(C(c2ccc(OC(*)=O)cc2)(C(F)(F)F)C(F)(F)F)cc1 (repeat unit)
2.74 Barrer | 47.1 Barrer | – | 2.95 Barrer | 11.8 Barrer | *Oc1ccc(C(c2ccc(OC(=O)c3ccc(C(*)=O)cc3)cc2)(C(F)(F)F)C(F)(F)F)cc1 (repeat unit)
0.345 Barrer | 8 Barrer | 22.8 Barrer | 0.44 Barrer | 2.4 Barrer | *Oc1ccc(C(c2ccc(Oc3ccc(C(=O)c4ccc(C(C)(C)c5ccc(C(=O)c6ccc(*)cc6)cc5)cc4)cc3)cc2)(C(F)(F)F)C(F)(F)F)cc1 (repeat unit)
0.55 Barrer | 12 Barrer | – | 0.67 Barrer | 3.4 Barrer | *Oc1ccc(C(c2ccc(Oc3ccc(S(=O)(=O)c4ccc(*)cc4)cc3)cc2)(C(F)(F)F)C(F)(F)F)cc1 (repeat unit)
0.38 Barrer | 8.7 Barrer | 21 Barrer | 0.54 Barrer | 3.3 Barrer | *Oc1ccc(Oc2ccc(C(=O)c3ccc(*)cc3)cc2)c(-c2cc(C(F)(F)F)cc(C(F)(F)F)c2)c1 (repeat unit)
0.05 Barrer | 1.6 Barrer | 4.6 Barrer | 0.053 Barrer | 0.33 Barrer | *Oc1ccc(Oc2ccc(C(=O)c3ccc(*)cc3)cc2)c(-c2cc(C)cc(C)c2)c1 (repeat unit)
0.041 Barrer | 1.5 Barrer | 5.1 Barrer | 0.051 Barrer | 0.38 Barrer | *Oc1ccc(Oc2ccc(C(=O)c3ccc(*)cc3)cc2)c(-c2cccc(C(F)(F)F)c2)c1 (repeat unit)
0.024 Barrer | 1 Barrer | 3.8 Barrer | 0.029 Barrer | 0.2 Barrer | *Oc1ccc(Oc2ccc(C(=O)c3ccc(*)cc3)cc2)c(-c2cccc(C)c2)c1 (repeat unit)

Source: a polymer gas permeability compilation
